What follows are compounds tested against T1, hAR (Homo sapiens, UniProt P10275) (assay: Competitive binding of 3H-DHT to baculovirus/Sf9 generated hAR extracts). Settings: IC50, concentration at which one half of maximum binding of 1 nM 3H-DHT to hAR is inhibited; one hour at 4° C.; mean of multiple tests.
T1 sequence (P10275 1-920): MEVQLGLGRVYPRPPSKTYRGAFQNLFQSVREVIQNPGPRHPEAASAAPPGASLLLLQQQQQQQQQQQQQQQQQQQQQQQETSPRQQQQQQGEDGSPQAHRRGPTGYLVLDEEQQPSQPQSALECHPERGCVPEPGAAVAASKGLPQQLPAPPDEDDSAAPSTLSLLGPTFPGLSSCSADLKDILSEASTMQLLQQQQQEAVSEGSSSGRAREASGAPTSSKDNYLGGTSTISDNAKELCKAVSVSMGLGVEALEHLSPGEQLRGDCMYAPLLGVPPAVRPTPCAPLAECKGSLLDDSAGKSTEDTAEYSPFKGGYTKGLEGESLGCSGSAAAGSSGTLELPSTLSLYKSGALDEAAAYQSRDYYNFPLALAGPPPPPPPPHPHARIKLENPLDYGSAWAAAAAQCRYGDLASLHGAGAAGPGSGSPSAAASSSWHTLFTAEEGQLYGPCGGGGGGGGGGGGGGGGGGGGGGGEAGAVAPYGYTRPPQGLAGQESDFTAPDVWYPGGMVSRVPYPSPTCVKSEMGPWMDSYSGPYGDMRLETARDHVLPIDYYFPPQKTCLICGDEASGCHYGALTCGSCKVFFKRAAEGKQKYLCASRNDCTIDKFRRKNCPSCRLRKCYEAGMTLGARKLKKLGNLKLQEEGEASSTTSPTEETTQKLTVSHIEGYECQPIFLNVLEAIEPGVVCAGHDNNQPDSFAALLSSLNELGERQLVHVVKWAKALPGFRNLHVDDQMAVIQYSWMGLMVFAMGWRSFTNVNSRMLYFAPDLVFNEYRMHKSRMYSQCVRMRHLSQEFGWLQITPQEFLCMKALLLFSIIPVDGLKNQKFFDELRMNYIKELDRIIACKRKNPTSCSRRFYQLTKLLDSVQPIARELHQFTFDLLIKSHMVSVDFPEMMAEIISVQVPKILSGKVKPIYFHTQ
Description: The description below describes how the assay was carried out.
Competitive binding analysis was performed on baculovirus/Sf9 generated hAR extracts in the presence or absence of different concentrations of test agent and a fixed concentration of ^3H-dihydrotestosterone (^3H-DHT) as tracer. This binding assay method is a modification of a protocol previously described (Liao S., et. al. J. Steroid Biochem. 20:11-17 1984). Briefly, progressively decreasing concentrations of compounds are incubated in the presence of hAR extract (Chang et al. P.N.A.S. Vol. 89, pp. […], 1992), hydroxylapatite, and 1 nM^3H-DHT for one hour at 4° C. Subsequently, the binding reactions are washed three times to completely remove excess unbound ^3H-DHT. hAR bound ^3H-DHT levels are determined in the presence of compounds (i.e. competitive binding) and compared to levels bound when no competitor is present (i.e. maximum binding). Compound binding affinity to the hAR is expressed as the concentration of compound at which one half of the maximum binding is inhibited.
Work on CC1(C)CNC(=O)C1Oc1ccc(C#N)c(C(F)(F)F)c1 (single isomer, unassigned; (+)) [Example 3, (+)-4-(4,4-Dimethyl-2-oxo-pyrrolidin-3-yloxy)-2-trifluoromethyl-benzonitrile] yielded an IC50 of 435 nM. In the case of CCCN1CC(C)(C)[C@H](Oc2ccc(C#N)c(C(F)(F)F)c2)C1=O [Example 4B, (−)-4-(1-Propyl-4,4-dimethyl-2-oxo-pyrrolidin-3-yloxy)-2-trifluoromethyl-benzonitrile (E1)], the IC50 is reported as greater than 10000 nM. COc1ccc(CN2CC(C)(C)C(Oc3ccc(C#N)c(C(F)(F)F)c3)C2=O)cc1 (stereo not shown) [Example 7, 4-[1-(4-Methoxy-benzyl)-4,4-dimethyl-2-oxo-pyrrolidin-3-yloxy]-2-trifluoromethyl-benzonitrile] showed an IC50 of 298 nM. COc1ccccc1CN1CC(C)(C)C(Oc2ccc(C#N)c(C(F)(F)F)c2)C1=O (stereo not shown) [Example 10, 4-[1-(2-Methoxy-benzyl)-4,4-dimethyl-2-oxo-pyrrolidin-3-yloxy]-2-trifluoromethyl-benzonitrile] was tested, and the IC50 was 298 nM. CCCCCN1CC(C)(C)C(Oc2ccc(C#N)c(C(F)(F)F)c2)C1=O (stereo not shown) [Example 31, 4-(4,4-Dimethyl-2-oxo-1-pentyl-pyrrolidin-3-yloxy)-2-trifluoromethyl-benzonitrile] showed an IC50 of 268 nM. Work on CCC(CC)CN1CC(C)(C)C(Oc2ccc(C#N)c(C(F)(F)F)c2)C1=O (stereo not shown) [Example 33, 4-[1-(2-Ethyl-butyl)-4,4-dimethyl-2-oxo-pyrrolidin-3-yloxy]-2-trifluoromethyl-benzonitrile] yielded an IC50 of 478 nM.

Same assay, conditions: concentration at which one half of maximum binding of 1 nM 3H-DHT to hAR is inhibited; one hour at 4° C.; mean of multiple tests; read-out: IC50
In the case of CC1(C)CN(C(=O)c2ccccc2)C(=O)C1Oc1ccc(C#N)c(C(F)(F)F)c1 (racemic) [Example 97, (±) 4-{1-Benzoyl-4,4-dimethyl-2-oxo-pyrrolidin-3-yloxy)-2-trifluoromethyl benzonitrile}], the IC50 is reported as 311 nM. CCN1CC(C)(C)C(Oc2ccc(C#N)c(C(F)(F)F)c2)C1=O (stereo not shown) [Example 21, 4-(1-Ethyl-4,4-dimethyl-2-oxo-pyrrolidin-3-yloxy)-2-trifluoromethyl-benzonitrile] gave an IC50 of 403 nM. With CC1(C)CN(Cc2cccc(C(=O)O)c2)C(=O)C1Oc1ccc(C#N)c(C(F)(F)F)c1 (stereo not shown) [Example 26, 3-[3-(4-Cyano-3-trifluoromethyl-phenoxy)-4,4-dimethyl-2-oxo-pyrrolidin-1-ylmethyl]-benzoic acid] the IC50 was 343 nM. CC1(C)CN(CC2CC2)C(=O)C1Oc1ccc(C#N)c(C(F)(F)F)c1 (stereo not shown) [Example 32, 4-(1-Cyclopropylmethyl-4,4-dimethyl-2-oxo-pyrrolidin-3-yloxy)-2-trifluoromethyl-benzonitrile] showed an IC50 of 420 nM. In the case of CC1(C)CN(Cc2cccc(C(F)(F)F)c2)C(=O)C1Oc1ccc(C#N)c(C(F)(F)F)c1 (stereo not shown) [Example 34, 4-[4,4-Dimethyl-2-oxo-1-(3-trifluoromethyl-benzyl)-pyrrolidin-3-yloxy]-2-trifluoromethyl-benzonitrile], the IC50 is reported as 437 nM. CC1(C)CN(Cc2ccc(SC(F)(F)F)cc2)C(=O)C1Oc1ccc(C#N)c(C(F)(F)F)c1 (stereo not shown) [Example 36, 4-[4,4-Dimethyl-2-oxo-1-(4-trifluoromethylsulfanyl-benzyl)-pyrrolidin-3-yloxy]-2-trifluoromethyl-benzonitrile] was tested, and the IC50 was 484 nM. Cc1ccc(Cc2noc(CN3CC(C)(C)C(Oc4ccc(C#N)c(C(F)(F)F)c4)C3=O)n2)cc1 (stereo not shown) [Example 43, 4-{4,4-Dimethyl-1-[3-(4-methyl-benzyl)-[1,2,4]oxadiazol-5-ylmethyl]-2-oxo-pyrrolidin-3-yloxy}-2-trifluoromethyl-benzonitrile] gave an IC50 of 283 nM. With CC1(C)CN(Cc2ccc(S(C)(=O)=O)cc2)C(=O)C1Oc1ccc(C#N)c(C(F)(F)F)c1 (stereo not shown) [Example 44, 4-[1-(4-Methanesulfonyl-benzyl)-4,4-dimethyl-2-oxo-pyrrolidin-3-yloxy]-2-trifluoromethyl-benzonitrile] the IC50 was 346 nM. CC1(C)CN(Cc2nc(-c3ccncc3)no2)C(=O)C1Oc1ccc(C#N)c(C(F)(F)F)c1 (stereo not shown) [Example 49, 4-[4,4-Dimethyl-2-oxo-1-(3-pyridin-4-yl-[1,2,4]oxadiazol-5-ylmethyl)-pyrrolidin-3-yloxy]-2-trifluoromethyl-benzonitrile] was tested, and the IC50 was 214 nM. Work on COc1ccccc1-c1nc(CN2CC(C)(C)C(Oc3ccc(C#N)c(C(F)(F)F)c3)C2=O)no1 (stereo not shown) [Example 51, 4-{1-[5-(2-Methoxy-phenyl)-[1,2,4]oxadiazol-3-ylmethyl]-4,4-dimethyl-2-oxo-pyrrolidin-3-yloxy}-2-trifluoromethyl-benzonitrile] yielded an IC50 of 321 nM. In the case of CC1(C)CN(CC2CCCCC2)C(=O)C1Oc1ccc(C#N)c(C(F)(F)F)c1 (stereo not shown) [Example 53, 4-(1-Cyclohexylmethyl-4,4-dimethyl-2-oxo-pyrrolidin-3-yloxy)-2-trifluoromethyl-benzonitrile], the IC50 is reported as 294 nM. With Cn1c(CN2CC(C)(C)C(Oc3ccc(C#N)c(C(F)(F)F)c3)C2=O)nc2ccccc21 (stereo not shown) [Example 55, 4-[4,4-Dimethyl-1-(1-methyl-1H-benzoimidazol-2-ylmethyl)-2-oxo-pyrrolidin-3-yloxy]-2-trifluoromethyl-benzonitrile] the IC50 was 500 nM. With COC(=O)c1ccoc1CN1CC(C)(C)C(Oc2ccc(C#N)c(C(F)(F)F)c2)C1=O (stereo not shown) [Example 58, 2-[3-(4-Cyano-3-trifluoromethyl-phenoxy)-4,4-dimethyl-2-oxo-pyrrolidin-1-ylmethyl]-furan-3-carboxylic acid methyl ester] the IC50 was 313 nM. With Cc1onc(-c2ccccc2)c1CN1CC(C)(C)C(Oc2ccc(C#N)c(C(F)(F)F)c2)C1=O (stereo not shown) [Example 59, 4-[4,4-Dimethyl-1-(5-methyl-3-phenyl-isoxazol-4-ylmethyl)-2-oxo-pyrrolidin-3-yloxy]-2-trifluoromethyl-benzonitrile] the IC50 was 277 nM. Compound CC1(C)CN(Cc2ccc(-n3cncn3)cc2)C(=O)C1Oc1ccc(C#N)c(C(F)(F)F)c1 (stereo not shown) [Example 62, 4-[4,4-Dimethyl-2-oxo-1-(4-[1,2,4]triazol-1-yl-benzyl)-pyrrolidin-3-yloxy]-2-trifluoromethyl-benzonitrile] has an IC50 of 293 nM. CC1(C)CN(Cc2nc(-c3ccc(C4SCCS4)cc3)no2)C(=O)C1Oc1ccc(C#N)c(C(F)(F)F)c1 (stereo not shown) [Example 63, 4-{1-[3-(4-[1,3]Dithiolan-2-yl-phenyl)-[1,2,4]oxadiazol-5-ylmethyl]-4,4-dimethyl-2-oxo-pyrrolidin-3-yloxy}-2-trifluoromethyl-benzonitrile] gave an IC50 of 500 nM. Compound CC1(C)CN(CC2CCC2)C(=O)C1Oc1ccc(C#N)c(C(F)(F)F)c1 (stereo not shown) [Example 64, 4-(1-Cyclobutylmethyl-4,4-dimethyl-2-oxo-pyrrolidin-3-yloxy)-2-trifluoromethyl-benzonitrile] has an IC50 of 254 nM. For CC1(C)CN(Cc2nc(-c3cccc([N+](=O)[O-])c3)no2)C(=O)C1Oc1ccc(C#N)c(C(F)(F)F)c1 (stereo not shown) [Example 67, 4-{4,4-Dimethyl-1-[3-(3-nitro-phenyl)-[1,2,4]oxadiazol-5-ylmethyl]-2-oxo-pyrrolidin-3-yloxy}-2-trifluoromethyl-benzonitrile], the IC50 was 437 nM. Cc1noc(C)c1S(=O)(=O)N1CC(C)(C)C(Oc2ccc(C#N)c(C(F)(F)F)c2)C1=O (stereo not shown) [Example 76, 4-[1-(3,5-Dimethyl-isoxazole-4-sulfonyl)-4,4-dimethyl-2-oxo-pyrrolidin-3-yloxy]-2-trifluoromethyl-benzonitrile] was tested, and the IC50 was 430 nM.

Source: US7674819B2 (Warner-Lambert Company LLC, priority 2005, dated 2010)
